Data as given in ChEMBL document CHEMBL1240398, “Surveillance and correlation of antibiotic prescription and resistance of Gram-negative bacteria in Singaporean hospitals” (2010).

Columns and labels:
Type in all cases: functional
[1] = test system: Pseudomonas aeruginosa; test: Antimicrobial activity against Pseudomonas aeruginosa isolate obtained from patient's blood assessed as resistance isolates by disk diffusion method
[2] = test system: Acinetobacter sp.; test: Antimicrobial activity against Acinetobacter sp. clinical isolate assessed as resistance isolates by disk diffusion method
[3] = test system: Pseudomonas aeruginosa; test: Antimicrobial activity against Pseudomonas aeruginosa clinical isolate assessed as resistance isolates by disk diffusion method
[4] = test system: Acinetobacter sp.; test: Antimicrobial activity against Acinetobacter sp. isolate obtained from patient's blood assessed as resistance isolates by disk diffusion method
[5] = test system: Escherichia coli; test: Antimicrobial activity against Escherichia coli clinical isolate assessed as resistance isolates by disk diffusion method
[6] = test system: Klebsiella pneumoniae; test: Antimicrobial activity against Klebsiella pneumoniae clinical isolate assessed as resistance isolates by disk diffusion method
[7] = test system: Klebsiella pneumoniae; test: Antimicrobial activity against Klebsiella pneumoniae isolate obtained from patient's blood assessed as resistance isolates by disk diffusion method
[8] = test system: Escherichia coli; test: Antimicrobial activity against Escherichia coli isolate obtained from patient's blood assessed as resistance isolates by disk diffusion method

| SMILES | Activity [1] | Activity [2] | Activity [3] | Activity [4] | Activity [5] | Activity [6] | Activity [7] | Activity [8] |
| --- | --- | --- | --- | --- | --- | --- | --- | --- |
| C[C@@H](O)[C@H]1C(=O)N2C(C(=O)O)=C(SCCNC=N)C[C@H]12 [IMIPENEM ANHYDROUS] | 12.8% | 46.2% | 7.5% | 50% |  |  |  |  |
| CO/N=C(\C(=O)N[C@@H]1C(=O)N2C(C(=O)O)=C(CSc3nc(=O)c(O)nn3C)CS[C@H]12)c1csc(N)n1 [CEFTRIAXONE] |  |  |  |  | 20% | 32.3% | 27.4% | 21.7% |
| O=C(O)c1cn(C2CC2)c2cc(N3CCNCC3)c(F)cc2c1=O [CIPROFLOXACIN] |  |  |  |  |  |  | 24% | 31% |
